# Tests used:
# [1] = tested on: patients with panic syndrome; experiment: Double-blind, parallel group clinical study in patients with panic syndrome (end point analysis); type: in vivo, human
# Description: The results of a clinical study will be referred to as an example of the use and the effect of discontinuous therapy of panic attacks by means of compound A.
# (§1) The clinical study is a double-blind, parallel group study in which in each case 12 patients with panic syndrome were treated either with compound A, that is, tablets containing 0.5 mg of active substance or with a corresponding placebo. The course of the trial was the following. After examining the inclusion and exclusion criteria and recording the basic data, the patients each received 20 tablets with instructions to take one tablet at the approach or beginning of the next panic attack. The medicaments previously used had been withdrawn before the commencement of the study. In the case of a satisfactory outcome of treatment the initial dosage was to be used a once more. Then, for the second investigation, the investigator was to be consulted. In the case of an unsatisfactory outcome of therapy, the dosage in the case of the second panic attack was to be increased to two tablets, which dosage was to be repeated in the case of success and, in the case of failure, was to be increased to three tablets. […] Patients with ineffective medication were to be discharged from the trial. Patients in whom an effective dosage had been found would use that dose in the next twelve panic states. In cases in which withdrawal phenomena of the preceding treatment played a role, the twelve treatments of the main treatment phase can be extended with an additional twelve dosages in a further phase, additional phase.
# (§2) During the treatment, the patients were required to carry a treatment day book. On the basis of the remarks contained therein, the statements of the patients as well as specific observations, the results of the trial at the end of the titration phase (investigation 2), at the end of the main treatment phase (investigation 3) and, if desired, at the end of the additional phase (investigation 4) were introduced into the trial data by the investigator. The following psychiatric scales were filled out as standardized comparative investigations at all points in time of the trial: anxiety scale according to Covi, depression scale according to Raskin, self-evaluated anxiety scale (SAS) and self-evaluated depression scale (SDS) according to Zung, as well as the withdrawal symptom scale (WSS) according to Merz & Ballmer.
# In each case, 12 patients were treated with compound A or placebo. In the group treated with compound A, 7 were male and 5 female with an average age of 33±5.4 years, of which--according to the DSM-III classification--2 suffered from panic syndrome without agoraphobia and 10 suffered from panic syndrome with agoraphobia. The diagnosis of a major depression was also established in 6 cases.
# The average duration of the disorder amounted to 98±83 months in the group treated with compound A and to 143±164 months in the placebo group. The weekly frequency of panic states was 5.6±3.2 in the group treated with compound A and 7.6±5.6 in the placebo group. In this calculation, a runaway in the placebo group which fell outside the average value and the five-fold standard deviation was not taken into consideration. The average duration of the panic attacks was 27±17 minutes in the group treated with compound A and 25±16 minutes in the placebo group. Nine (9) patients treated with compound A and 10 placebo patients were able to predict attacks with an average prediction time of 11±12 minutes in the group treated with compound A and 10±7 minutes in the placebo group.
# Because of the different lengths of the total treatment, average duration 43±27 days in the group treated with compound A and 28±32 days in the placebo group and because of the unequal distribution of the exclusions and drop-outs, the following results are presented in the form of an end point analysis: […]
# [2] = tested on: patients with panic syndrome; experiment: Side effects in the clinical study in patients with panic syndrome; type: in vivo, human
# Description: as §1, §2
# The following side effects were found:
# ^3 MRA = "Mean Risk per Administration", i.e. the risk at which the
# particular side effect is incurred by a single intake of the medicament.
# From the list of side effects, it is evident that the […] has less benzodiazepine-typical side effects of the sedative and motor type.
# patients = experiment: Clinically relevant effects noticed by patients (onset); type: in vivo, human; conditions: 1 mg perorally in tablet form; generally
# Description: (§3) After 1 mg of compound A has been taken perorally in tablet form a maximal active substance level is already reached after 45 minutes. Clinically relevant effects, that is, effects noticed by patients, generally occur already after 10 minutes.
# [3] = Plasma level after peroral intake of compound A in tablet form; type: in vivo; conditions: human, po, 1 mg perorally in tablet form
# Description: as §3
structure (smiles),measurement,setting,value
"CC(C)(C)OC(=O)c1ncn2c1[C@@H]1CCCN1C(=O)c1c(Br)cccc1-2 [Compound A, t-butyl (S)-8-bromo-11,12,13,13a-tetrahydro-9-oxo-9H-imidazo[1,5-a]pyrrolo[2,1-c][1,4]benzodiazepine-1-carboxylate]",antipanic activity,[1]; conclusion from the clinical comparison,specific antipanic activity
same,Δ frequency of attack per week (n),"[1]; n = 12, p < 0.05 vs placebo",-2.6 ± 3.3 n
same,Average treatment period,"[1]; n = 12, p < 0.05 vs placebo (Mann-Whitney U test)",43 ± 27 days
same,Δ withdrawal symptom scale (WSS),[1]; n.s. vs placebo,-3.9 ± 6.8
same,Δ Covi anxiety scale (outside evaluation),[1]; p < 0.001 vs placebo,3.3 ± 3.2
same,Δ Raskin depression scale (outside evaluation),[1]; p < 0.001 vs placebo,1.9 ± 3.2
same,Δ Zung anxiety scale (self evaluation),[1]; p < 0.001 vs placebo,6.4 ± 8.5
same,Δ Zung depression scale (self evaluation),[1]; p < 0.001 vs placebo,4.5 ± 9.0
same,Average improvement in phobias,"[1]; scale as initial intensity, p < 0.001 vs placebo",2.2 ± 1.0
same,Reduction in the intensity of attack,"[1]; score 4 = complete, 3 = strong, 2 = weak, 1 = no effect, p < 0.01 vs placebo",3.5 ± 0.9
same,Average number of tablets at the end of treatment,"[1]; tablets of 0.5 mg, n = 12, p < 0.001 vs placebo",1.4 ± 0.9
same,secondary panic symptoms in untreated intervals between successive panic attacks,[1]; vs placebo,reduced significantly better than by placebo
same,quality of the observed side effects,"[2]; CGI evaluation, in total",only of minimal quality
same,tolerance,[2]; all together,satisfactory tolerance
same,"Coarse muscular relaxation, No. Pat.","[2]; number of patients, of 12",1
same,"Dopiness, No. Pat.","[2]; number of patients, of 12",5
same,"Drowsiness, No. Pat.","[2]; number of patients, of 12",9
same,"Dry mouth, No. Pat.","[2]; number of patients, of 12",1
same,"Headache, No. Pat.","[2]; number of patients, of 12",1
same,"Nausea, No. Pat.","[2]; number of patients, of 12",1
same,"Slurred speech/""heavy tongue"", No. Pat.","[2]; number of patients, of 12",2
same,"Unsteadiness when walking or standing, No. Pat.","[2]; number of patients, of 12",4
same,"Coarse muscular relaxation, No. Reg.",[2]; number registered,2
same,"Dopiness, No. Reg.",[2]; number registered,60
same,"Drowsiness, No. Reg.",[2]; number registered,45
same,"Dry mouth, No. Reg.",[2]; number registered,2
same,"Headache, No. Reg.",[2]; number registered,2
same,"Nausea, No. Reg.",[2]; number registered,9
same,"Slurred speech/""heavy tongue"", No. Reg.",[2]; number registered,5
same,"Unsteadiness when walking or standing, No. Reg.",[2]; number registered,13
same,duration of side effects as part of the total treatment period,[2]; on average,0.96±1.01%
same,total duration of side effects,[2]; on average,7.8 ± 7.6 h
same,"Coarse muscular relaxation, MRA (Mean Risk per Administration)",[2]; risk per single intake,0.7%
same,"Dopiness, MRA (Mean Risk per Administration)",[2]; risk per single intake,21.8%
same,"Drowsiness, MRA (Mean Risk per Administration)",[2]; risk per single intake,16.4%
same,"Dry mouth, MRA (Mean Risk per Administration)",[2]; risk per single intake,0.7%
same,"Headache, MRA (Mean Risk per Administration)",[2]; risk per single intake,0.7%
same,"Nausea, MRA (Mean Risk per Administration)",[2]; risk per single intake,3.3%
same,"Slurred speech/""heavy tongue"", MRA (Mean Risk per Administration)",[2]; risk per single intake,1.8%
same,"Unsteadiness when walking or standing, MRA (Mean Risk per Administration)",[2]; risk per single intake,4.7%
same,time to clinically relevant effects (noticed by patients),patients,10 min
same,Tmax,[3]; read-out: time to maximal active substance level (converted),0.75 h
same,half-life,[3]; read-out: β-half life (converted),2.25 h
